Reference: patent US20170190705A1, “Compositions and Methods for Inhibiting BMP” (THE BRIGHAM AND WOMAN'S HOSPITAL, INC., priority 2014, published 2017)

Assays:
Assay type in all cases: biochemical
TSSK1 = target: T1, TSSK1 (Homo sapiens, UniProt Q9BXA7); assay: Kinome profiling TSSK1; conditions: read-out: Inhibitory activity TSSK1; for inhibition at 0.1 µM: 100 nM
T1 sequence (Q9BXA7 1-367): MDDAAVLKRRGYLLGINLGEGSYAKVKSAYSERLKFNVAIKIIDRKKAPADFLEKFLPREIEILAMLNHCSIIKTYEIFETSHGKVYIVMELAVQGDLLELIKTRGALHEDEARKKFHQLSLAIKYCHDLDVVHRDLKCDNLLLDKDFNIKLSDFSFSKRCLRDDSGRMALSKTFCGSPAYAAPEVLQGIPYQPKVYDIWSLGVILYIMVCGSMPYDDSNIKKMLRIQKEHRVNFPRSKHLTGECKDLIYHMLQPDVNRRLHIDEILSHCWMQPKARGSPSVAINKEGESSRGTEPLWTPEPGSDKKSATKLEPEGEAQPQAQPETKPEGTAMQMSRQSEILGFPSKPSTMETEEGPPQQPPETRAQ
Method: (§1) . The kinome-wide selectivity was determined following the methods previously reported by Mohedas et al., ACS Chem Biol 2013, 8, 1291-1302 and Sanvitale et al., PLoS One 2013, 8, e62721.

NEK9 = target: T2, NEK9 (Homo sapiens, UniProt Q8TD19); assay: Kinome profiling NEK9; conditions: read-out: Inhibitory activity NEK9; for inhibition at 0.1 µM: 100 nM
T2 sequence (Q8TD19 1-979): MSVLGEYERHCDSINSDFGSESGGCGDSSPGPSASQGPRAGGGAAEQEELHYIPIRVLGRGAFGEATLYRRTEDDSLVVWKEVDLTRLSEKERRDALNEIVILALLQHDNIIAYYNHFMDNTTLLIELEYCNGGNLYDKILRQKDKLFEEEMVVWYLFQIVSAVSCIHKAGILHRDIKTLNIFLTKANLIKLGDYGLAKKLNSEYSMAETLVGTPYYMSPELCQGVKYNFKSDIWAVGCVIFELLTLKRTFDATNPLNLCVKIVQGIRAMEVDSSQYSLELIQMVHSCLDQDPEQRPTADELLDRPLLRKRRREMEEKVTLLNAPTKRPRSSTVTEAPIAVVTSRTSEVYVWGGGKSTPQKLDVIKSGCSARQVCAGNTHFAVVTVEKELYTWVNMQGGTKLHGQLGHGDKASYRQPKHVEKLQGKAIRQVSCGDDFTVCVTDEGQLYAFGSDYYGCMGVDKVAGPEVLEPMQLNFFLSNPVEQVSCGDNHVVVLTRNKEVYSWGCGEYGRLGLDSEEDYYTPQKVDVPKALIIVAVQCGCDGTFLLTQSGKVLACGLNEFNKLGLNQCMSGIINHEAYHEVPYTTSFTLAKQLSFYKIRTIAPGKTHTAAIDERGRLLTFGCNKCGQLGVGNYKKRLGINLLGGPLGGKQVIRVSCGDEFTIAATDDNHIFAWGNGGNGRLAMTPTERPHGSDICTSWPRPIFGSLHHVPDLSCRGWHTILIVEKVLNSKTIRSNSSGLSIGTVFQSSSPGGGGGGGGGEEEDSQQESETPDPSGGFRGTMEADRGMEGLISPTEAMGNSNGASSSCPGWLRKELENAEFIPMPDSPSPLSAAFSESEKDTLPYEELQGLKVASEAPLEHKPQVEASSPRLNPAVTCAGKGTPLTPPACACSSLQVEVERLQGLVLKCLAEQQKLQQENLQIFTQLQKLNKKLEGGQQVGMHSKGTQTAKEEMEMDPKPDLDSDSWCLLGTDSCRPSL
Method: as §1

HIPK1 = HIPK1 (Homo sapiens, UniProt Q86Z02); assay: Kinome profiling HIPK1; conditions: read-out: Inhibitory activity HIPK1; for inhibition at 0.1 µM: 100 nM
Chain of HIPK1 (Q86Z02 whole entry): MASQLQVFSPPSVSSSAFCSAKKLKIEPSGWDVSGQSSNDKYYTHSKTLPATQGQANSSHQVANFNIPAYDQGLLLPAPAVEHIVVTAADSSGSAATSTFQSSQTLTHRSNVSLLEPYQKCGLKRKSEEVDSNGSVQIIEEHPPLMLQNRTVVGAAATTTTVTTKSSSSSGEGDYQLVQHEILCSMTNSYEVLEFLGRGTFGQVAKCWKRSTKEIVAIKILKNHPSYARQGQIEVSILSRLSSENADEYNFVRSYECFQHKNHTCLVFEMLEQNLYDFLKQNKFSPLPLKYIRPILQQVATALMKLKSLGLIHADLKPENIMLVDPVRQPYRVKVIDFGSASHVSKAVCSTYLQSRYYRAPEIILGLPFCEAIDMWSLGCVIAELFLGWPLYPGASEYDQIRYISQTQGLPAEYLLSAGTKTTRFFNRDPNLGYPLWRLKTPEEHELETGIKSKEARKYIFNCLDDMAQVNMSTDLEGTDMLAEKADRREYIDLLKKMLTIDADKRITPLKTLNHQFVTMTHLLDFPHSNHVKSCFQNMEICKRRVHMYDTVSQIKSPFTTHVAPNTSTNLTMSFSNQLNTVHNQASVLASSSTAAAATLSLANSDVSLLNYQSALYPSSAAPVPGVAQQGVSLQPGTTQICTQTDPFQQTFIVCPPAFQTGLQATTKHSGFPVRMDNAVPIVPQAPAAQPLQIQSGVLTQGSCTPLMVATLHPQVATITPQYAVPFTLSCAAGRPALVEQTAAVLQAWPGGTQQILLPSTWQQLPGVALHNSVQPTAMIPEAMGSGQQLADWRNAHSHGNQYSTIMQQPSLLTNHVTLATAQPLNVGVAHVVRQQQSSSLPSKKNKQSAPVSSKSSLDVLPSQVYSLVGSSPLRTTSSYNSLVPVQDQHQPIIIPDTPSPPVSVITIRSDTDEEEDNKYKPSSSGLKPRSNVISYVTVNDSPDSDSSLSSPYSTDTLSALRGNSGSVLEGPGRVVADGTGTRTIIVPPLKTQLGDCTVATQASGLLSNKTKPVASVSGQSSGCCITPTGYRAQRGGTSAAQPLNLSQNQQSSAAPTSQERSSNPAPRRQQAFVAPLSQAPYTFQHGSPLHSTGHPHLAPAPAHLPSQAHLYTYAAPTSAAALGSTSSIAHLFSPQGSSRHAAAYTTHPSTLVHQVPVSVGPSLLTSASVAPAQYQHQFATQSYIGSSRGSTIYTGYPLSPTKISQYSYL
Method: as §1

PRKG2 = target: T3, PRKG2 (Homo sapiens, UniProt Q13237); assay: Kinome profiling PRKG2; conditions: read-out: Inhibitory activity PRKG2; for inhibition at 0.1 µM: 100 nM
T3 sequence (Q13237 1-762): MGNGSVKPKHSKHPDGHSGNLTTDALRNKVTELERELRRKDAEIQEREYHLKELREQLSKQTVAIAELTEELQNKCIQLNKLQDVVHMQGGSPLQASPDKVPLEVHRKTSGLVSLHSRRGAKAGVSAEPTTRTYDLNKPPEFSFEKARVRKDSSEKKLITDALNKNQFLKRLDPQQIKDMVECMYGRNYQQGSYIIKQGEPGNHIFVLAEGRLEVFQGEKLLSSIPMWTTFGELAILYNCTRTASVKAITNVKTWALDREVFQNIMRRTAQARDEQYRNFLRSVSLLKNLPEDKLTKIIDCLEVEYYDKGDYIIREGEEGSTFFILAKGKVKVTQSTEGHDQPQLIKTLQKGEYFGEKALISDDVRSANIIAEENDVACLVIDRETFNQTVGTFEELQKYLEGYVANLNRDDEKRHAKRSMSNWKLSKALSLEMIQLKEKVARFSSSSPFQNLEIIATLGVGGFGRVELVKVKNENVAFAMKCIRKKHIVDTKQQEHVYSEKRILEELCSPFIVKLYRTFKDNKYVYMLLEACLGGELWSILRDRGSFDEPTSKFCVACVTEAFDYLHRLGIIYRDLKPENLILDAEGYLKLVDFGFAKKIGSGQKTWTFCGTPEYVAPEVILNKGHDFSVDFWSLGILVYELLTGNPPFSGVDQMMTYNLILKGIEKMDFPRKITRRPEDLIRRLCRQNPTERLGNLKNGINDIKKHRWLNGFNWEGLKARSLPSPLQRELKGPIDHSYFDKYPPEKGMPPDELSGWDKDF
Method: as §1

| Compound | inhibition at 0.1 µM (TSSK1) | inhibition at 1 µM (TSSK1) | inhibition at 0.1 µM (NEK9) | inhibition at 1 µM (NEK9) | inhibition at 0.1 µM (HIPK1) | inhibition at 1 µM (HIPK1) | inhibition at 0.1 µM (PRKG2) | inhibition at 1 µM (PRKG2) |
| --- | --- | --- | --- | --- | --- | --- | --- | --- |
| COc1cc(-c2cc(-c3ccc(N4CCNCC4)cc3)cnc2C)cc(OC)c1OC [Compound 10, 1-(4-(6-methyl-5-(3,4,5-trimethoxyphenyl)pyridin-3-yl)phenyl)piperazine] | 2% | 2% | 1% | 1% | 1% | 1% | 0% | 4% |
| COc1cc(-c2cc(-c3ccc(N4CCNCC4)cc3)cnc2N)cc(OC)c1OC [Compound 15, 5-(4-(piperazin-1-yl)phenyl)-3-(3,4,5-trimethoxyphenyl)pyridin-2-amine] | 1% | 5% | 3% | 6% | 1% | 2% | 0% | 1% |
